# Data reported in PubChem BioAssay AID328 (DTP/NCI, 2004).
# Values joined by “and” are separate entries in the source; they are usually repeats but may differ in a detail not shown here. Equal entries are not always repeated. Inconclusive results and toxic doses are left out.
# Tested on: BDF1 mice, P388 leukemia ip, median survival T/C
# Assay: NCI In Vivo Anticancer Drug Screen. Data for tumor model P388 Leukemia (intraperitoneal) in B6D2F1 (BDF1) mice
# Conditions: endpoint: median survival time, higher = longer survival
# Method in brief: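 In tumour-bearing mice, survival after compound treatment is set against the vehicle group and given as a quotient.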
# [1] = dose: 12.5 mg/kg/injection, schedule: Q01DX009 (ip), vehicle: saline with Tween-80
# [2] = dose: 25.0 mg/kg/injection, schedule: Q01DX009 (ip), vehicle: saline with Tween-80
# [3] = dose: 100.0 mg/kg/injection, schedule: Q01DX009 (ip), vehicle: saline
# [4] = dose: 100.0 mg/kg/injection, schedule: Q04DX003 (ip), vehicle: saline
# [5] = dose: 200.0 mg/kg/injection, schedule: Q01DX009 (ip), vehicle: saline
structure (smiles),measurement,setting,value
CCCCc1ccc(NC(=O)N(CCCl)N=O)cc1,T/C,"dose: 2.5 mg/kg/injection, schedule: Q01DX009 (ip), vehicle: Klucel (hydroxypropylcellulose) (HPC)",160 % of control
same,T/C,"dose: 2.5 mg/kg/injection, schedule: Q04DX003 (ip), vehicle: Klucel (hydroxypropylcellulose) (HPC)",175 % of control
same,T/C,"dose: 4.0 mg/kg/injection, schedule: Q01DX009 (ip), vehicle: Klucel (hydroxypropylcellulose) (HPC)",180 % of control
same,T/C,"dose: 4.0 mg/kg/injection, schedule: Q04DX003 (ip), vehicle: Klucel (hydroxypropylcellulose) (HPC)",191 % of control
same,T/C,"dose: 8.0 mg/kg/injection, schedule: Q01DX009 (ip), vehicle: Klucel (hydroxypropylcellulose) (HPC)",230 % of control
same,T/C,"dose: 8.0 mg/kg/injection, schedule: Q04DX003 (ip), vehicle: Klucel (hydroxypropylcellulose) (HPC)",208 % of control
same,T/C,"dose: 10.0 mg/kg/injection, schedule: Q04DX003 (ip), vehicle: other",172 % of control
same,T/C,"dose: 16.0 mg/kg/injection, schedule: Q01DX009 (ip), vehicle: Klucel (hydroxypropylcellulose) (HPC)",225 % of control
same,T/C,"dose: 16.0 mg/kg/injection, schedule: Q04DX003 (ip), vehicle: Klucel (hydroxypropylcellulose) (HPC)",233 % of control
same,T/C,"dose: 20.0 mg/kg/injection, schedule: Q04DX003 (ip), vehicle: other",172 % of control
same,T/C,"dose: 32.0 mg/kg/injection, schedule: Q01DX009 (ip), vehicle: Klucel (hydroxypropylcellulose) (HPC)",100 % of control
same,T/C,"dose: 66.0 mg/kg/injection, schedule: Q04DX003 (ip), vehicle: other",222 % of control
same,T/C,"dose: 99.0 mg/kg/injection, schedule: Q04DX003 (ip), vehicle: other",186 % of control
same,T/C,"dose: 150.0 mg/kg/injection, schedule: Q04DX003 (ip), vehicle: other",254 % of control
same,T/C,"dose: 225.0 mg/kg/injection, schedule: Q04DX003 (ip), vehicle: other",245 % of control
O=c1nc(Oc2ccccc2)nc2c3ccccc3ccn12,T/C,[1],118 % of control
same,T/C,[2],102 % of control
same,T/C,"dose: 50.0 mg/kg/injection, schedule: Q01DX009 (ip), vehicle: saline with Tween-80",112 % of control
same,T/C,"dose: 100.0 mg/kg/injection, schedule: Q01DX009 (ip), vehicle: saline with Tween-80",114 % of control and 119 % of control
same,T/C,"dose: 200.0 mg/kg/injection, schedule: Q01DX009 (ip), vehicle: saline with Tween-80",89 % of control
CCC(C)(OC(C)=O)C(=O)O[C@H]1C(=O)O[C@@H]2C[C@H]3C(C)=CC(=O)[C@@H](O)[C@]3(C)[C@H]3[C@@]4(O)OC[C@]32[C@@H]1[C@@H](C)[C@H]4O (some centres not stated),T/C,"dose: 0.25 mg/kg/injection, schedule: Q01DX009 (ip), vehicle: saline",119 % of control
same,T/C,"dose: 1.25 mg/kg/injection, schedule: Q01DX009 (ip), vehicle: saline",157 % of control
same,T/C,"dose: 2.0 mg/kg/injection, schedule: Q01DX009 (ip), vehicle: saline",121 % of control
same,T/C,"dose: 5.0 mg/kg/injection, schedule: Q01DX009 (ip), vehicle: saline",123 % of control
Cc1ccc(S[Si](Sc2ccc(C)cc2)(Sc2ccc(C)cc2)Sc2ccc(C)cc2)cc1,T/C,"dose: 200.0 mg/kg/injection, schedule: Q04DX002 (ip), vehicle: saline with Tween-80",92 % of control
same,T/C,"dose: 400.0 mg/kg/injection, schedule: Q04DX002 (ip), vehicle: saline with Tween-80",100 % of control
CC(C)C(C)/C=C\C(C)C1CCC2C3=CCC4CC(O)CCC4(C)C3CCC21C (configuration not stated),T/C,"dose: 6.25 mg/kg/injection, schedule: Q01DX009 (ip), vehicle: saline with Tween-80",100 % of control
same,T/C,[1],101 % of control
same,T/C,[2],94 % of control
O=C(O)CS(=O)(=O)c1ccccc1,T/C,"dose: 25.0 mg/kg/injection, schedule: Q04DX003 (ip), vehicle: saline",109 % of control
same,T/C,"dose: 50.0 mg/kg/injection, schedule: Q01DX001 (ip), vehicle: other",95 % of control
same,T/C,"dose: 50.0 mg/kg/injection, schedule: Q01DX009 (ip), vehicle: saline",108 % of control
same,T/C,"dose: 50.0 mg/kg/injection, schedule: Q04DX003 (ip), vehicle: saline",109 % of control
same,T/C,"dose: 100.0 mg/kg/injection, schedule: Q01DX001 (ip), vehicle: other",100 % of control
same,T/C,[3],120 % of control
same,T/C,[4],100 % of control
same,T/C,[5],108 % of control
CC1(C)NC(=O)NC1=O,T/C,"dose: 100.0 mg/kg/injection, schedule: Q01DX001 (ip), vehicle: saline with Tween-80",100 % of control
same,T/C,"dose: 200.0 mg/kg/injection, schedule: Q01DX001 (ip), vehicle: saline with Tween-80",100 % of control
same,T/C,"dose: 400.0 mg/kg/injection, schedule: Q01DX001 (ip), vehicle: saline with Tween-80",100 % of control
COC(=O)C(N)CSC (configuration not stated),T/C,[3],103 % of control
same,T/C,[4],113 % of control
same,T/C,[5],106 % of control
same,T/C,"dose: 200.0 mg/kg/injection, schedule: Q04DX003 (ip), vehicle: saline",90 % of control
same,T/C,"dose: 400.0 mg/kg/injection, schedule: Q01DX009 (ip), vehicle: saline",106 % of control
same,T/C,"dose: 400.0 mg/kg/injection, schedule: Q04DX003 (ip), vehicle: saline",104 % of control
C=CCCCCC/C=C/CCCCCC,T/C,"dose: 75.0 mg/kg/injection, schedule: Q01DX010 (ip), vehicle: saline with Tween-80",90 % of control
same,T/C,"dose: 150.0 mg/kg/injection, schedule: Q01DX010 (ip), vehicle: saline with Tween-80",122 % of control
CC1NC(=O)C2Cc3ccc(O)c(c3)Oc3cccc(c3)C(O)C(C(=O)N2C)N(C)C(=O)C(C)NC(=O)C(Cc2ccc(O)c(O)c2)N(C)C(=O)C(C)NC1=O (configuration not stated),T/C,"dose: 0.25 mg/kg/injection, schedule: Q01DX009 (ip), vehicle: distilled water + Tween-80",94 % of control
same,T/C,"dose: 0.5 mg/kg/injection, schedule: Q01DX009 (ip), vehicle: distilled water + Tween-80",99 % of control
same,T/C,"dose: 1.0 mg/kg/injection, schedule: Q01DX009 (ip), vehicle: distilled water + Tween-80",94 % of control
same,T/C,"dose: 2.0 mg/kg/injection, schedule: Q01DX009 (ip), vehicle: distilled water + Tween-80",96 % of control
same,T/C,"dose: 4.0 mg/kg/injection, schedule: Q01DX009 (ip), vehicle: distilled water + Tween-80",99 % of control
same,T/C,"dose: 8.0 mg/kg/injection, schedule: Q01DX009 (ip), vehicle: distilled water + Tween-80",99 % of control
CC1CCC2(CC1)NC(=O)N(CNc1ccccc1)C2=O (configuration not stated),T/C,"dose: 50.0 mg/kg/injection, schedule: Q04DX003 (ip), vehicle: saline with Tween-80",100 % of control
same,T/C,"dose: 100.0 mg/kg/injection, schedule: Q04DX003 (ip), vehicle: saline with Tween-80",87 % of control
same,T/C,"dose: 200.0 mg/kg/injection, schedule: Q04DX003 (ip), vehicle: saline with Tween-80",100 % of control
